This passage reports Ave -Log EC50, R-SAT functional potency, FOLD (shift in functional potency against wild type; negative = gain of function) and FOLD results from patent publication US7348140B1, “Clinical indications for genotyping polymorphic variants of G-protein coupled receptors” (Acadia Pharmaceuticals, Inc., priority 2001, dated 2008).

The target of assay [1] is Cholecystokinin B receptor, wild type (Leucine 224) (UniProt P32239). The experiment in a line: cell-based or functional assay.
The target of assay [2] is Cholecystokinin B receptor L224Q variant (Glutamine 224) (UniProt P32239). In words: cell-based or functional assay.
The target of assay [3] is T1, thromboxane receptor V176E (Glutamic Acid 176) (Homo sapiens, UniProt P21731, V176E).
T1 construct: expressed in transfected cells; host or cells: NIH-3T3
In words: R-SAT functional assay, thromboxane receptor V176E. It is filed as cell-based. The note with it: shift in functional potency, Glutamic Acid 176 vs Valine 176.

Assay [4] has as its target T2, thromboxane receptor V80E (Glutamic Acid 80) (Homo sapiens, UniProt P21731, V80E).
T2 construct: expressed in transfected cells; host or cells: NIH-3T3
In words: R-SAT functional assay, thromboxane receptor V80E. It is filed as cell-based. Particulars: shift in functional potency, Glutamic Acid 80 vs Valine 80; Table 26.

Assay [5] addresses T3, thromboxane receptor E94V (Valine 94) (Homo sapiens, UniProt P21731, E94V).
T3 construct: expressed in transfected cells; host or cells: NIH-3T3
In words: R-SAT functional assay, thromboxane receptor E94V. The note with it: shift in functional potency, Valine 94 vs Glutamine 94; Table 27. It is filed as cell-based.

Sequence of Cholecystokinin B receptor L224Q variant (Glutamine 224) (P32239 whole entry L224Q): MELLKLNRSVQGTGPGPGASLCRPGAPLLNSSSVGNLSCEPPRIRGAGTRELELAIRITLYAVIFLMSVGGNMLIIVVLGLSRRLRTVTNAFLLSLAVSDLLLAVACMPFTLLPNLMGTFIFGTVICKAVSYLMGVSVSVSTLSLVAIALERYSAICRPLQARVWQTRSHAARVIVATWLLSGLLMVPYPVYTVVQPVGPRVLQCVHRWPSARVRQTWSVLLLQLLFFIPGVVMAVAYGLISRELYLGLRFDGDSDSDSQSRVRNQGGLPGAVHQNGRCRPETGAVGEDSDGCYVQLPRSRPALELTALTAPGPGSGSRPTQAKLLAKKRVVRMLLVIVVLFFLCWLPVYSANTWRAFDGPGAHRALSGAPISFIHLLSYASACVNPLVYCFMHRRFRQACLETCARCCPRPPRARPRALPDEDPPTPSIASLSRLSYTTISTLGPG
T2 sequence (P21731 whole entry V80E): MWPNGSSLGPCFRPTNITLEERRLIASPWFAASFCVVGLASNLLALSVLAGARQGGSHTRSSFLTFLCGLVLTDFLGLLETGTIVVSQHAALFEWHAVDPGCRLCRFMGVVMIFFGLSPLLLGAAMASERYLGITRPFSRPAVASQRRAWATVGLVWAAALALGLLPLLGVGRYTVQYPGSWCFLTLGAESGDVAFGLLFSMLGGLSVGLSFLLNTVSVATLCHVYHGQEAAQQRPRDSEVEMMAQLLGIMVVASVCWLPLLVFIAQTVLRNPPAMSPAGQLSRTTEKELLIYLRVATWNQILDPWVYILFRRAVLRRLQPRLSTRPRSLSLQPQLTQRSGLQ
T1 sequence (P21731 whole entry V176E): as the sequence (P21731 whole entry V80E) above, with E80V, V176E counted along it
T3 sequence (P21731 whole entry E94V): as the sequence (P21731 whole entry V80E) above, with E80V, E94V counted along it
Sequence of Cholecystokinin B receptor, wild type (Leucine 224) (P32239 whole entry): as the sequence (P32239 whole entry L224Q) above, with Q224L counted along it

“Gastrin (from UniProt P01350 76-92) (peptide)”: in assay [1], the Ave -Log EC50, R-SAT functional potency was 8.71 -log EC50. Also, in assay [2], the Ave -Log EC50, R-SAT functional potency is 9.78 -log EC50 and the FOLD (shift in functional potency against wild type; negative = gain of function) is -11.7 fold.
As to `CCCCC[C@H](O)/C=C/[C@@H]1[C@@H](C/C=C\CCCC(=O)O)[C@H]2CO[C@@H]1C2` [U46619], the FOLD worked out at 5 fold in assay [3], 63 fold in assay [4] and 6.0 fold in assay [5].
The matching figures for `O=C(O)CCC/C=C\C[C@@H]1[C@@H](/C=C/[C@@H](O)COc2ccc(I)cc2)[C@H]2CC[C@@H]1O2` [I-BOP]: 13 fold, 93 fold and 3.5 fold.
